The record followed here is patent US8895033B2, “Sustained release formulations using non-aqueous carriers” (Amylin Pharmaceuticals, LLC, priority 2008, dated 2014).

A short description of the series: Fraction of drug in microparticles and in MCT oil carrier after storage. It counts as physicochemical. The source says: Mixtures ranged from 2% to 10% w/w of the active pharmaceutical ingredient. The mixed powder was transferred to an extruder where the temperature was adjusted according to the chosen polymer. Some polymers needed higher temperatures to produce a melt with good flow properties. The extruder contained twin screws that moved clockwise to produce efficient mixing. The material was extruded through a 1.5 mm orifice, collected, cooled at room temperature, and cut into short strands about 1-2 inches long. These strands were then fed into a 12-tooth rotor mill, followed by a sieving step to produce microparticles of about 20 to 100 microns. The microparticles were collected and stored at 5° C. until further use.
Experimental samples were prepared by dispersing about 50 mg of the microparticles into 0.75 mL of a MCT oil carrier. The samples were stored at 5° C. and 25° C. for two days, two weeks, or one month, at which times representative samples were tested. The fraction of drug that remained in the microparticles and the fraction of drug that partitioned into the MCT oil carrier were determined. Briefly, the samples were centrifuged to separate the microparticles from the MCT oil carrier. Each portion was treated independently to determine the amount of drug it contained. Results are reported on the basis of the percent residing in each independent portion.

The mark [1] stands for this setting: PLGA copolymer, 1 Month Storage at 5° C.
Where [2] appears, read: PLGA copolymer, 1 Month Storage at 25° C.
[3] abbreviates: PLGA copolymer, 2 Days Storage at 5° C.
Setting [4] is: PLGA copolymer, 2 Days Storage at 25° C.
[5] abbreviates: polycaprolactone/PLGA copolymer, Two Weeks Storage, 5° C.
Setting [6] is: polycaprolactone/PLGA copolymer, Two Weeks Storage, 25° C.

In the case of `CC[C@H](C)[C@H](NC(=O)[C@@H]1CCCN1C(=O)CNC(=O)[C@H](Cc1ccccc1)NC(=O)[C@H](CC(N)=O)NC(=O)[C@H](CC(N)=O)NC(=O)[C@H](CO)NC(=O)[C@H](CO)NC(=O)[C@H](Cc1c[nH]cn1)NC(=O)[C@@H](NC(=O)[C@H](CC(C)C)NC(=O)[C@H](Cc1ccccc1)NC(=O)[C@H](CC(N)=O)NC(=O)[C@H](C)NC(=O)[C@H](CC(C)C)NC(=O)[C@H](CCCNC(=N)N)NC(=O)[C@H](CCC(N)=O)NC(=O)[C@@H](NC(=O)[C@H](C)NC(=O)[C@@H]1CSSC[C@H](NC(=O)[C@@H](N)CCCCN)C(=O)N[C@@H](CC(N)=O)C(=O)N[C@@H]([C@@H](C)O)C(=O)N[C@@H](C)C(=O)N[C@@H]([C@@H](C)O)C(=O)N1)[C@@H](C)O)C(C)C)C(=O)N[C@@H](CC(C)C)C(=O)N1CCC[C@H]1C(=O)N1CCC[C@H]1C(=O)N[C@H](C(=O)N[C@@H](CC(N)=O)C(=O)N[C@H](C(=O)NCC(=O)N[C@@H](CO)C(=O)N[C@@H](CC(N)=O)C(=O)N[C@H](C(=O)N[C@@H](Cc1ccc(O)cc1)C(N)=O)[C@@H](C)O)C(C)C)[C@@H](C)O` [pramlintide], the “percent of drug in MCT Carrier” value reads like this: under setting [1], 0.3%; under setting [2], 0.0%; under setting [3], 0.0%; under setting [4], 0.0%; under setting [5], 0.0%; under setting [6], 0.0%. In addition, the “percent of drug in Microparticles” value was 99.7% under setting [1]; 100.0% under setting [2]; 100.0% under setting [3]; 100.0% under setting [4]; 100.0% under setting [5]; 100.0% under setting [6].
With `O=C(O)c1ccccc1O` [salicylic acid], the “percent of drug in MCT Carrier” value was determined as 0.1% under setting [1], 0.2% under setting [2], 1.1% under setting [3] and 0.9% under setting [4]. The “percent of drug in Microparticles” value is recorded as 99.9% under setting [1], 99.8% under setting [2], 98.9% under setting [3] and 99.1% under setting [4]. Moreover, the “migration into the MCT carrier oil” value (from microparticles on storage) is “did not migrate”.
With `O=C([O-])c1ccccc1O.[Na+]` [sodium salicylate], the “percent of drug in MCT Carrier” value under setting [1] is 1.3%, the “percent of drug in MCT Carrier” value under setting [2] was 1.5%, the “percent of drug in MCT Carrier” value under setting [3] came out at 0.5% and the “percent of drug in MCT Carrier” value under setting [4] is on record as 2.3%. In addition, the “percent of drug in Microparticles” value reads like this: under setting [1], 98.7%; under setting [2], 98.5%; under setting [3], 99.5%; under setting [4], 97.7%.
Take bovine serum albumin: the “percent of drug in MCT Carrier” value was found to be 0.0% under setting [1], 0.0% under setting [2], 0.0% under setting [3] and 0.0% under setting [4]. The “percent of drug in Microparticles” value runs as follows: under setting [1], 100.0%; under setting [2], 100.0%; under setting [3], 100.0%; under setting [4], 100.0%.
Turning to davalintide, the “percent of drug in MCT Carrier” value by setting is: under setting [1], 0.6%; under setting [2], 0.0%; under setting [3], 0.2%; under setting [4], 0.0%. For the same compound, the “percent of drug in Microparticles” value was 99.4% under setting [1], 100.0% under setting [2], 99.8% under setting [3] and 100.0% under setting [4].
As to insulin, the “percent of drug in MCT Carrier” value under setting [1] is 0.5% and the “percent of drug in MCT Carrier” value under setting [2] is recorded as 0.7%. Also, the “percent of drug in Microparticles” value under setting [1] came out at 99.5%.
Regarding metreleptin, the “percent of drug in MCT Carrier” value worked out at 0.0% under setting [1], 0.0% under setting [2], 0.0% under setting [3] and 0.0% under setting [4]. Further, the “percent of drug in Microparticles” value reads like this: under setting [1], 100.0%; under setting [2], 100.0%; under setting [3], 100.0%; under setting [4], 100.0%.
